Measurements reported in patent publication EP0147980A2, “A 5-nitro-2-furanyl derivative and its use as an anti-parasitic agent” (Rossignol, Jean François, priority 1983, dated 1985).
“And” between values parts separate entries of the source, which are not always exact repeats. Equal entries are not always repeated.

Experiments:
Type in all cases: in vivo
S. japonicum = assay: Primary curative test against S. japonicum in hamsters; conditions: 1 g/kg single oral gavage
Excerpt: The primary curative test evaluates the therapeutic activity of the drug against S. japonicum in hamsters. Interpretation of the test is based upon observation of a shift of worms from the portal and mesenteric veins to the liver under the influence of the test drug. In addition the mortality of the worms found in the liver, portal and mesenteric veins is also an important criteria of effectiveness in establishing the schistosomicidal effectiveness of the drug. Hamsters weighing 150 to 250 grams were exposed to 100 S. japonicum cercariae by the ring method. 35 to 45 days after infection, the test compound (I) was administered as a single […] by oral gavage, the product being suspended in gum syrup. Out of 10 infected animals, 5 were so treated, with 5 being used as control animals. Hamsters were sacrificed three days after treatment; the liver was removed as well as the portal and mesenteric veins, squashed between two slides and the number of live or dead worms in the liver, the portal and mesenteric veins was recorded.

[1] = Acute oral toxicity study in mice
Procedure: The test chemical was administered as a single 4,000 mg/kg oral dose to five male and five female Swiss mice.

Schistosoma mansoni [2] = assay: Primary prophylactic test (mortality test) against Schistosoma mansoni in mice
Procedure: The primary screening method used to evaluate prophylactic activity against Schistosoma mansoni is a mortality test. Mice are exposed to a massive number of cercariae by tail immersion. In untreated control mice this exposure produces a reproducible mortality pattern with 99+% of the mice dying between 20 and 30 days (mean survival time 24 days). The test compound is administered in a single dose two days after cercarial exposure. A compound is considered active if mice survive to 49 days, at which time they are sacrificed and examined for worms.
The test is of the "prophylactic"-type in the sense that the drug action is on the immature migrating schistosomes and prevents the development of adult worms in the portal circulation.
Mice weighing 18 to 23 grams were exposed to 3500-4500 infective S. mansoni cercariae by tail immersion for 30 minutes, and subsequently housed in groups of five per cage (5 test mice and 5 control mice). Two days after infection, the test compound of the formula (I) was administered subcutaneously as a single 1,280 mg/kg dose suspended in peanut oil to one group of five mice.
Mouse mortality was recorded daily for 49 days after infection. On the 49th day, survivors were sacrificed and the total worm burden was determined by perfusion of the liver and portal circulation (perf-o-suction technique).
Control mice exposed to at least 3500 cercariae and not treated with the test compound (I) experience 99+% mortality, with nearly all deaths occurring between about day 20 and day 30. In treated mice, deaths occurring within one week after drug administration are assumed to be induced by the toxic action of the drug itself, since, control mice rarely die during this period. The survival of drug treated mice to 49 days is interpreted as evidence of drug action which kills or otherwise prevents the development of the migrating immature schistosomes. The- survival of only one mouse has, in our experience, been difficult to reproduce, and, in general, a compound is not considered active unless two or more mice survive to 49 days.

Schistosoma mansoni [3] = assay: Primary curative test against Schistosoma mansoni in hamster
Procedure: The primary curative test evaluates the therapeutic activity of the drug against S. mansoni in hamster. Interpretation of the test is based upon observation of a shift of worms from the portal and mesenteric veins to the liver under the influence of the test drug. Hamsters weighing 150 to 250 grams were exposed to 150-250 S. mansoni cercariae by the ring method. 30 to 35 days after infection, the test drug (compound (I)) was administered as a 200 mg/kg daily dose for four consecutive days. The drug was administered by oral gavage suspended in gum syrup. Hamsters were sacrificed three days after the last drug treatment. The liver was removed, squashed between two slides, and the number of live and dead worms in the liver were recorded. From experience, the total worm burden in the portal circulation of S. mansoni infected hamsters ranges from 20 to 50 worms, i.e., […] of the total number of cercariae injected. Over 80% of these worms reside in the extra-hepatic portal and mesenteric veins. Thus, when the liver is removed in control animals about 10 worms could be counted in the liver.

[4] = individual treated hamsters 1-5
[5] = individual surviving mice (Mouse 1-3) sacrificed day 49, 1,280 mg/kg s.c.
[6] = mean of three surviving mice, day 49, 1,280 mg/kg s.c.
[7] = individual hamsters 1-5, 200 mg/kg daily for four consecutive days, oral gavage, sacrificed three days after last treatment, 200 mg/kg

## COc1ccc(NC(=O)C=Cc2ccc([N+](=O)[O-])o2)c(C)c1 [compound (I), N-(4-methoxy-2-methylphenyl)-3-(5-nitro-2-furanyl) propenamide]
S. japonicum
  shift of worms from the portal and mesenteric veins to the liver: marked shift of the worms from the portal and mesenteric veins to the liver
S. japonicum; average of five treated hamsters
  worms killed on the average in the liver, the portal and mesenteric veins: about 86%
S. japonicum; [4]
  No. of worms found, Liver, Female: 7 and 6 (3×) and 4
  No. of worms found, Mesenteric, Female: 5 and 4 (3×) and 2
  No. of worms found, Mesenteric, Male: 7 (2×) and 6 and 4 and 8
  No. of worms found, Portal, Female: 0
  No. of worms found, Portal, Male: 0
S. japonicum; individual treated hamsters 1-5, sacrificed three days after treatment
  No. of worms found, Liver, Male: 8 (2×) and 14 (2×) and 9
S. japonicum; worms, individual treated hamsters 1-5, controls 0
  % dead: 100% (3×) and 70% and 60%
[1]; mouse, in vivo, po, administered orally in mice
  LD50 at 336 h: > 4000 mg/kg
[1]; single 4,000 mg/kg oral dose, five male and five female Swiss mice, 14 days
  clinical observation, weights and macroscopic examination of organs: no adverse pattern
Schistosoma mansoni [2]; group of five mice, single 1,280 mg/kg subcutaneous dose in peanut oil two days after infection
  mice survived until day 49: Three
Schistosoma mansoni [2]; group of five mice, single 1,280 mg/kg subcutaneous dose, control mice died at days 19, 22, 25, 28 and 32
  day of death of the two test mice that died: 41 days
Schistosoma mansoni [2]; [5]
  worm burden, Female: 5 and 7 and 6
  worm burden, Total: 15 and 19 and 16
Schistosoma mansoni [2]; individual surviving mice (Mouse 1-3) sacrificed day 49, 1,280 mg/kg s.c., perfusion of liver and portal circulation
  worm burden, Male: 10 (2×) and 12
Schistosoma mansoni [2]; [6]
  worm burden, Female, mean: 6.0
  worm burden, Male, mean: 10.6
  worm burden, Total, mean: 16.6
Schistosoma mansoni [2]; single subcutaneous administration of 1,280 mg/kg, active = two or more mice survive to 49 days
  activity against the migrating stage of Schistosoma mansoni in mice: active
Schistosoma mansoni [3]; 200 mg/kg daily x 4 days oral, parasites in the liver were dead
  shift of worms from the portal and mesenteric veins to the liver: marked shift of the worms from the portal and mesenteric veins to the liver
Schistosoma mansoni [3]; for four consecutive days, oral gavage, hamster
  effective dose: 200 mg/kg per day
Schistosoma mansoni [3]; [7]
  No. of worms found in the liver, Treated Animals, F: 17 and 6 and 18 and 60 and 54
  No. of worms found in the liver, Treated Animals, M: 17 and 10 (2×) and 50 and 46
Schistosoma mansoni [3]; mean of five treated hamsters, 200 mg/kg daily x 4 days oral, controls 12.0
  Mean No. of worms found in the liver, Treated Animals, F: 31.0
Schistosoma mansoni [3]; mean of five treated hamsters, 200 mg/kg daily x 4 days oral, controls 15.3
  Mean No. of worms found in the liver, Treated Animals, M: 26.6
